Measurements from patent publication US9657147B2, “Method for preparing glycolide polyester by ring opening polymerization” (TEKNOLOGIAN TUTKIMUSKESKUS VTT OY, priority 2011, dated 2017).

Experiment: Test of solubility of the starting materials and homopolyglycolide in organic solvents
Text: A solvent which could be used in the ring opening polymerization should meet criteria: i) the solvent should be good enough to dissolve all starting materials including monomer (glycolide), co-monomer, initiator, catalyst and dispersion stabilizer, and ii) it should not dissolve resulting polymer (homopolyglycolide and co-polymers).

O=C1COC(=O)CO1 [Glycolide]
solution concentration permitted in acetonitrile (solvent acetonitrile): 50 wt-% | solubility in Toluene (solvent toluene): bad
